Laboratory results reported in patent publication US20260337225A1, “SMALL PEPTIDE AND USE THEREOF IN MUCOSAL REPAIR” (FORREST BIO-PHARM (SHENZHEN) CO., LTD., priority 2022, published 2026).
Where “and” joins values, the source holds several entries; their conditions need not be identical. Equal entries are not always repeated. No end group written: not given here.

Columns and labels:
Rat kidney = test: Animal safety observation: rat kidney injury (serum blood urea nitrogen levels); format: in vivo; details: 14 days; for Blood Urea Nitrogen Levels: intragastric gavage, rat serum, individual rats (Rat 1-6)
Description: (§1) The rats were administered with the small peptides via intragastric gavage at doses of 500 mg/kg and 1000 mg/kg daily for 14 days. Changes in body weight were recorded. On day 14, the rats were sacrificed to measure alaninetransaminase (ALT) activity and blood urea nitrogen (BUN) levels in rat serum for assessing whether there was hepatotoxicity and nephrotoxicity in rats.

Rat liver = test: Animal safety observation: rat liver injury (serum alaninetransaminase activity); format: in vivo; details: 14 days; for Alaninetransaminase Activity, Average / Alaninetransaminase Activity: intragastric gavage, rat serum; for Alaninetransaminase Activity, Average: average of 6 rats, saline average P1 35.83333, P2 30.83333; for Alaninetransaminase Activity: individual rats (Rat 1-6)
Description: as §1

[1] = tested on: rat model of chronic gastric ulcer; test: Rat model of chronic gastric ulcer (anhydrous ethanol followed by aspirin); format: in vivo
Description: The function of the small peptides obtained in Embodiment 2 was validated in the present embodiment by using a rat model of chronic gastric ulcer.
Control group (model group): A rat model of chronic gastric ulcer model was constructed by intragastric administration of anhydrous ethanol (1 mL/200 g), followed by intragastric administration of 200 mg/kg aspirin 2 h later. The rats were administered with aspirin once daily for 4 days. At day 5, the rats were administered with an equal volume of saline.
Blank group: The rats were administered with an equal volume of saline.
Drug treatment groups: A rat model of chronic gastric ulcer was constructed as above-mentioned. At day 5, the rats were respectively administered with the rice polypeptide mixture (50 mg/kg), small peptide P1 (0.5 mg/kg), or small peptide P2 (0.5 mg/kg) twice daily for 3 days. On day 4, the rats were sacrificed and their gastric necropsy was performed.
Positive control group (omeprazole 2.6 mg/kg): A rat model of chronic gastric ulcer was constructed as above. At day 5, the rats were administered with omeprazole (2.6 mg/kg) twice daily for 3 days. On day 4, The rats were sacrificed and their gastric necropsy was performed.
Each group consisted of 10 rats. After 24 h of modeling, the rats were sacrificed to extract the gastric tissue, for measuring gastric pH, and observing changes in ulcer area via gastric tissue dissection. Liver and kidney tissues were collected for pathological section observation to assess drug safety.

[2] = Animal safety observation: rat body weight; format: in vivo; details: for Rat body weight: 1000 mg/kg daily, intragastric gavage, individual rats, Rat 1-7 = c1-c7, 1000 mg/kg
Description: as §1

[3] = tested on: mouse model of acute gastric ulcer; test: Mouse model of acute gastric ulcer (anhydrous ethanol); format: in vivo
Description: In this embodiment, the function of the small peptides obtained in Embodiment 2 was validated using a mouse model of acute gastric ulcer.
Control group (model group): A mouse mode of acute gastric ulcer was constructed using anhydrous ethanol (0.1 mL/10 g) (referring to the literature of Study on Action of kangfuxin Solution on Experimental Gastric ulcer [J]. Chinese Traditional Patent Medicine, 2001, 23(2): 122-124. DOI: 10.3969/j.issn.1001-1528.). After modeling, the mice were administered with an equal volume of saline.
Blank group: The mice were administered with an equal volume of saline.
Drug treatment groups: A mouse mode of acute gastric ulcer was constructed by treating the mouse with anhydrous ethanol (0.1 mL/10 g). At 2 h, 12 h, and 22 h after modeling, the mice were administered with the rice polypeptide mixture (50 mg/kg) as the mixture group, small peptide P1 (0.5 mg/kg) as the P1 group, and small peptide P2 (0.5 mg/kg) as the P2 group, respectively.
Each group consisted of 8 mice. After 24 h of modeling, the mice were sacrificed, to extract the gastric tissue, and observe changes in bleeding points and ulcer area via gastric tissue dissection.

[4] = tested on: normal human kidney-2 cells (HK-02, HK-2); test: Nephrotoxicity: cytotoxicity in HK-2 cells by CCK-8 assay; format: cell-based; details: 10-200 μg/mL, 24 h, in words
Description: Referring to the method from a literature (Sinomenine improve diabetic nephropathy by inhibiting fibrosis and regulating the JAK2/STAT3/SOCS1 pathway in streptozotocin-induced diabetic rats. Life Sci. 2021; 265:118855), normal human kidney-2 cells (HK-02, HK-2) (Shanghai Cell Bank) were seeded into 96-well plates and administered with small peptides P1 and P2 at concentrations of 0 μg/mL, 10 μg/mL, 20 μg/mL, 50 μg/mL, 100 μg/mL, and 200 μg/mL. After 24-hour stimulation, the cytotoxicity was assessed by Cell Counting Kit-8 (CCK-8) assay.

mucosal repair = test: Screening of active monomers for mucosal repair effects; details: repeated experiments and screening; in words
From the text: The inventors observed the active monomers in the polypeptide mixture of Polimi-1 rice variety by mass spectrometry analysis of the polypeptides from various ordinary rice varieties and Polimi-1 rice variety. The small peptides identical to ordinary rice varieties and with high levels in ordinary rice varieties were excluded by a method of exclusion. Finally, the small peptides with higher levels in Polimi-1 rice variety and lower levels in other ordinary rice varieties were selected for further study, as well as those with higher levels in Polimi-1 rice variety and absent in other ordinary rice varieties. Since peptides with molecular weights below 1500 Daltons were extracted from the mixed polypeptide mixture previously obtained, other peptides above this threshold were excluded.

[5] = tested on: normal human hepatic parenchymal L-02 cells; test: Hepatotoxicity: cytotoxicity in L-02 cells by CCK-8 assay; format: cell-based; details: 10-200 μg/mL, 24 h, in words
Description: Referring to the method from a literature (Determination of emodin in L-02 cells and cell culture media with liquid chromatography-mass spectrometry: Application to a cellular toxicokinetic study. J Pharm Biomed Anal. 2012; 71:71-78), normal human hepatic parenchymal L-02 cells (obtained from Shanghai Cell Bank) were seeded into 96-well plates and treated with small peptides P1 and P2 at concentrations of 0 μg/mL, 10 μg/mL, 20 μg/mL, 50 μg/mL, 100 μg/mL, and 200 μg/mL. After 24-hour stimulation, the cytotoxicity was assessed by Cell Counting Kit-8 (CCK-8) assay.

[6] = 500 and 1000 mg/kg daily, rats, in words

GPSGPELRG [Small peptide P2, GPSGPELRG]
Blood Urea Nitrogen Levels (Rat kidney; 500 mg/kg daily): 19 mg/dL and 37 mg/dL and 32 mg/dL and 34 mg/dL and 42 mg/dL and 33 mg/dL | Blood Urea Nitrogen Levels (Rat kidney; 1000 mg/kg daily): 23 mg/dL and 29 mg/dL and 35 mg/dL and 39 mg/dL and 43 mg/dL and 44 mg/dL | nephrotoxicity (Rat kidney; [6]): without hepatotoxicity and nephrotoxicity | Alaninetransaminase Activity, Average (Rat liver; 500 mg/kg daily): 29.33 IU/L | Alaninetransaminase Activity (Rat liver; 500 mg/kg daily): 34 IU/L (2×) and 42 IU/L and 17 IU/L and 21 IU/L and 28 IU/L | Alaninetransaminase Activity, Average (Rat liver; 1000 mg/kg daily): 36.67 IU/L | Alaninetransaminase Activity (Rat liver; 1000 mg/kg daily): 29 IU/L and 43 IU/L and 45 IU/L and 33 IU/L and 32 IU/L and 38 IU/L | hepatotoxicity (Rat liver; [6]): without hepatotoxicity | Ulcer index ([1]; 0.5 mg/kg twice daily for 3 days, 10 rats, ratio of ulcer area to gastric mucosal tissue area, Control group 40.5 ± 5.3): 5.5 ± 3.7% | Ulcer inhibition rate ([1]; 0.5 mg/kg twice daily for 3 days, percentage reduction in ulcer area compared to the Control group): 86.4% | anti-ulcer effects ([1]; P1, P2 0.5 mg/kg, mixture 50 mg/kg, in words): exhibit anti-ulcer effects | P versus Positive control group ([1]; anti-ulcer effects compared to omeprazole 2.6 mg/kg, P1, P2 0.5 mg/kg, mixture 50 mg/kg): > 0.05 | Rat body weight ([2]; Day 1): 208 g and 215 g and 219 g and 218 g and 217 g (2×) and 214 g | Rat body weight ([2]; Day 2): 210 g and 216 g (2×) and 220 g and 221 g and 223 g and 218 g | Rat body weight ([2]; Day 3): 211 g and 220 g and 221 g and 222 g and 225 g and 210 g and 219 g | Rat body weight ([2]; Day 4): 213 g and 224 g | Rat body weight ([2]; Day 5): 214 g and 225 g (2×) and 229 g (2×) and 221 g and 226 g | Rat body weight ([2]; Day 6): 214 g and 226 g and 225 g and 231 g and 230 g and 224 g and 229 g | Rat body weight ([2]; Day 7): 215 g and 226 g and 230 g (2×) and 237 g and 232 g and 225 g | Rat body weight ([2]; Day 8): 216 g and 229 g (2×) and 233 g and 236 g and 234 g and 232 g | Rat body weight ([2]; Day 9): 221 g and 230 g and 235 g (2×) and 239 g and 234 g and 231 g | Rat body weight ([2]; Day 10): 224 g and 231 g and 238 g and 240 g and 239 g and 235 g and 237 g | Rat body weight ([2]; Day 11): 225 g and 234 g and 239 g and 242 g (2×) and 238 g and 240 g | Rat body weight ([2]; Day 12): 230 g and 235 g and 239 g and 244 g (2×) and 245 g and 240 g | Rat body weight ([2]; Day 13): 231 g and 238 g and 240 g and 245 g (2×) and 249 g and 241 g | Rat body weight ([2]; Day 14): 235 g and 239 g and 241 g and 248 g and 250 g and 244 g (2×) | Rat body weight ([2]; Day 15): 238 g and 241 g and 242 g and 250 g and 252 g and 245 g (2×) | effects on rat body weight ([2]; daily intragastric gavage for 14 days, in words): minimal effects | Ulcer index ([3]; 0.5 mg/kg at 2 h, 12 h and 22 h after modeling, 8 mice, ratio of ulcer area to gastric mucosal tissue area, Control group 58.3 ± 10.1): 7.1 ± 5.5% | Ulcer inhibition rate ([3]; 0.5 mg/kg at 2 h, 12 h and 22 h after modeling, percentage reduction in ulcer area compared to the Control group): 87.8% | result compared to the mixture group ([3]; 0.5 mg/kg versus mixture 50 mg/kg, in words): better results than the mixture in larger dose | anti-ulcer effects ([3]; 0.5 mg/kg, in words): excellent anti-ulcer effects | viability of normal human kidney cells HK-02 (HK-2) [4]: no effect | nephrotoxicity ([4]; HK-2 cells): no nephrotoxicity | mucosal repair effects (mucosal repair): found to have mucosal repair effects | viability of normal human liver cells L-02 [5]: no effect | hepatotoxicity ([5]; L-02 cells): no hepatotoxicity
